Source: ChEMBL document CHEMBL4308841, “Synthesis, in vitro antiproliferative activity, and kinase inhibitory effects of pyrazole-containing diarylureas and diarylamides” (Eur J Med Chem, 2018)

Experiments:
HOP-62 [1] = test: Growth inhibition of human HOP62 cells incubated for 48 hrs by sulforhodamine B assay; format: functional, cell-based; conditions: HOP-62, 48 h
SR [2] = test: Growth inhibition of human SR cells assessed as cell growth at 0.01 uM incubated for 48 hrs by sulforhodamine B assay relative to control; format: functional; conditions: read-out: Activity
A498 [3] = test: Growth inhibition of human A498 cells incubated for 48 hrs by sulforhodamine B assay; format: functional, cell-based; conditions: A498, 48 h
K562 [4] = test: Growth inhibition of human K562 cells assessed as cell growth at 1 uM incubated for 48 hrs by sulforhodamine B assay relative to control; format: functional; conditions: K562, 48 h, read-out: Activity
OVCAR-3 = test: Growth inhibition of human OVCAR3 cells assessed as cell growth at 100 uM incubated for 48 hrs by sulforhodamine B assay relative to control; format: functional; conditions: OVCAR-3, 48 h, read-out: Activity
SN12C = test: Growth inhibition of human SN12C cells assessed as cell growth at 0.01 uM incubated for 48 hrs by sulforhodamine B assay relative to control; format: functional; conditions: read-out: Activity
OVCAR-5 = test: Growth inhibition of human OVCAR5 cells assessed as cell growth at 100 uM incubated for 48 hrs by sulforhodamine B assay relative to control; format: functional; conditions: OVCAR-5, 48 h, read-out: Activity
NCI-H23 = test: Growth inhibition of human NCI-H23 cells assessed as cell growth at 0.01 uM incubated for 48 hrs by sulforhodamine B assay relative to control; format: functional; conditions: NCI-H23, 48 h, read-out: Activity
A549 [5] = test: Growth inhibition of human A549/ATCC cells assessed as cell growth at 0.01 uM incubated for 48 hrs by sulforhodamine B assay relative to control; format: functional; conditions: A549, 48 h, read-out: Activity
SK-MEL-5 = test: Growth inhibition of human SK-MEL-5 cells assessed as cell growth at 0.01 uM incubated for 48 hrs by sulforhodamine B assay relative to control; format: functional; conditions: SK-MEL-5, 48 h, read-out: Activity
OVCAR-4 [6] = test: Growth inhibition of human OVCAR4 cells assessed as cell growth at 0.1 uM incubated for 48 hrs by sulforhodamine B assay relative to control; format: functional; conditions: OVCAR-4, 48 h, read-out: Activity
A549 [7] = test: Growth inhibition of human A549/ATCC cells assessed as cell growth at 100 uM incubated for 48 hrs by sulforhodamine B assay relative to control; format: functional; conditions: A549, 48 h, read-out: Activity
PC-3 [8] = test: Growth inhibition of human PC3 cells assessed as cell growth at 0.01 uM incubated for 48 hrs by sulforhodamine B assay relative to control; format: functional; conditions: PC-3, 48 h, read-out: Activity
ACHN = test: Growth inhibition of human ACHN cells assessed as cell growth at 0.01 uM incubated for 48 hrs by sulforhodamine B assay relative to control; format: functional; conditions: read-out: Activity
OVCAR-4 [9] = test: Growth inhibition of human OVCAR4 cells assessed as cell growth at 1 uM incubated for 48 hrs by sulforhodamine B assay relative to control; format: functional; conditions: OVCAR-4, 48 h, read-out: Activity
LOX IMVI = test: Growth inhibition of human LOXIMVI cells assessed as cell growth at 1 uM incubated for 48 hrs by sulforhodamine B assay relative to control; format: functional; conditions: read-out: Activity
HT-29 [10] = test: Growth inhibition of human HT-29 cells assessed as cell growth at 0.1 uM incubated for 48 hrs by sulforhodamine B assay relative to control; format: functional; conditions: HT-29, 48 h, read-out: Activity
A498 [11] = test: Growth inhibition of human A498 cells assessed as cell growth at 1 uM incubated for 48 hrs by sulforhodamine B assay relative to control; format: functional; conditions: A498, 48 h, read-out: Activity
SR [12] = test: Growth inhibition of human SR cells assessed as cell growth at 100 uM incubated for 48 hrs by sulforhodamine B assay relative to control; format: functional; conditions: read-out: Activity
NCI-H226 = test: Growth inhibition of human NCI-H226 cells assessed as cell growth at 1 uM incubated for 48 hrs by sulforhodamine B assay relative to control; format: functional; conditions: NCI-H226, 48 h, read-out: Activity
PC-3 [13] = test: Growth inhibition of human PC3 cells incubated for 48 hrs by sulforhodamine B assay; format: functional, cell-based; conditions: PC-3, 48 h
HT-29 [14] = test: Growth inhibition of human HT-29 cells incubated for 48 hrs by sulforhodamine B assay; format: functional, cell-based; conditions: HT-29, 48 h
SK-OV-3 = test: Growth inhibition of human SKOV3 cells assessed as cell growth at 1 uM incubated for 48 hrs by sulforhodamine B assay relative to control; format: functional; conditions: SK-OV-3, 48 h, read-out: Activity
K562 [15] = test: Growth inhibition of human K562 cells incubated for 48 hrs by sulforhodamine B assay; format: functional, cell-based; conditions: K562, 48 h
KM12 = test: Growth inhibition of human KM12 cells assessed as cell growth at 1 uM incubated for 48 hrs by sulforhodamine B assay relative to control; format: functional; conditions: KM12, 48 h, read-out: Activity
MDA-MB-231 [16] = test: Growth inhibition of human MDA-MB-231 cells assessed as cell growth at 0.1 uM incubated for 48 hrs by sulforhodamine B assay relative to control; format: functional; conditions: MDA-MB-231, 48 h, read-out: Activity
MDA-MB-231 [17] = test: Growth inhibition of human MDA-MB-231 cells assessed as cell growth at 1 uM incubated for 48 hrs by sulforhodamine B assay relative to control; format: functional; conditions: MDA-MB-231, 48 h, read-out: Activity
SF-268 = test: Growth inhibition of human SF268 cells assessed as cell growth at 0.1 uM incubated for 48 hrs by sulforhodamine B assay relative to control; format: functional; conditions: SF-268, 48 h, read-out: Activity
HOP-62 [18] = test: Growth inhibition of human HOP62 cells assessed as cell growth at 0.01 uM incubated for 48 hrs by sulforhodamine B assay relative to control; format: functional; conditions: HOP-62, 48 h, read-out: Activity
[19] = read-out: LC50 (the source's name)
[20] = read-out: pLC50 (the source's name) (converted)

In the case of `O=C(Nc1cccc(-n2cc(-c3ccncc3)c(-c3cc(O)cc(Cl)c3)n2)c1)c1cc(C(F)(F)F)cc(C(F)(F)F)c1`, the GI50 (HOP-62 [1]; read-out: GI50) is reported as 9.52 µM, the CC50 (HOP-62 [1]; [19]) is reported as > 100 µM and the TGI (HOP-62 [1]; read-out: TGI) is reported as > 100 µM. For the same molecule, the GI50 (HOP-62 [1]; read-out: pGI50 (converted)) was 9.77 µM, the CC50 (HOP-62 [1]; [20]) was > 100 µM and the TGI (HOP-62 [1]; read-out: pTGI (converted)) was > 100 µM. The growth at 0.01 µM (SR [2]) was 94%, the GI50 (A498 [3]; read-out: GI50) was 4.75 µM and the CC50 (A498 [3]; [19]) was > 100 µM. The TGI (A498 [3]; read-out: TGI) was 90.8 µM, the GI50 (A498 [3]; read-out: pGI50 (converted)) was 4.79 µM and the CC50 (A498 [3]; [20]) was > 100 µM. The TGI (A498 [3]; read-out: pTGI (converted)) was 91.2 µM, the growth at 1 µM (K562 [4]) was 85% and the growth at 100 µM (OVCAR-3) was -10%. The growth at 0.01 µM (SN12C) was 97%, the growth at 100 µM (OVCAR-5) was -32% and the growth at 0.01 µM (NCI-H23) was 94%. The growth at 0.01 µM (A549 [5]) was 95%, the growth at 0.01 µM (SK-MEL-5) was 97% and the growth at 0.1 µM (OVCAR-4 [6]) was 104%. The growth at 100 µM (A549 [7]) was 4%, the growth at 0.01 µM (PC-3 [8]) was 95% and the growth at 0.01 µM (ACHN) was 105%. The growth at 1 µM (OVCAR-4 [9]) was 101%, the growth at 1 µM (LOX IMVI) was 97% and the growth at 0.1 µM (HT-29 [10]) was 91%. It also gave a growth at 1 µM (A498 [11]) of 78%, a growth at 100 µM (SR [12]) of -18% and a growth at 1 µM (NCI-H226) of 91%. For the same molecule, the IC50 (PC-3 [13]) was 2.28 µM, the GI50 (PC-3 [13]; read-out: GI50) was 2.28 µM and the CC50 (PC-3 [13]; [19]) was > 100 µM. For the same molecule, the TGI (PC-3 [13]; read-out: TGI) was 22.5 µM, the GI50 (PC-3 [13]; read-out: pGI50 (converted)) was 2.29 µM and the CC50 (PC-3 [13]; [20]) was > 100 µM. The TGI (PC-3 [13]; read-out: pTGI (converted)) was 28.2 µM, the GI50 (HT-29 [14]; read-out: GI50) was 2.5 µM and the CC50 (HT-29 [14]; [19]) was > 100 µM. The TGI (HT-29 [14]; read-out: TGI) was 37.7 µM, the GI50 (HT-29 [14]; read-out: pGI50 (converted)) was 2.51 µM and the CC50 (HT-29 [14]; [20]) was > 100 µM. For the same molecule, the TGI (HT-29 [14]; read-out: pTGI (converted)) was 38 µM, the growth at 1 µM (SK-OV-3) was 100% and the GI50 (K562 [15]; read-out: GI50) was 3.24 µM. The LC50 (K562 [15]; read-out: LC50) was > 100 µM, the TGI (K562 [15]; read-out: TGI) was > 100 µM and the GI50 (K562 [15]; read-out: pGI50 (converted)) was 3.24 µM. The LC50 (K562 [15]; read-out: pLC50 (converted)) was > 100 µM, the TGI (K562 [15]; read-out: pTGI (converted)) was > 100 µM and the growth at 1 µM (KM12) was 79%. It also gave a growth at 0.1 µM (MDA-MB-231 [16]) of 94%, a growth at 1 µM (MDA-MB-231 [17]) of 70% and a growth at 0.1 µM (SF-268) of 95%. The growth at 0.01 µM (HOP-62 [18]) was 103%.
